Patent publication US20160317632A1, “USE OF CBP/EP300 BROMODOMAIN INHIBITORS FOR CANCER IMMUNOTHERAPY” (GENENTECH, INC., priority 2013, published 2016)

How the values were obtained:
Format in all cases: cell-based, human
iTreg cells [1] = assay: Foxp3 expression in iTreg differentiating cells by q-RT-PCR (FIG. 7)
Description: (§1) Naïve CD4+CD45RA+ T cells were isolated from healthy human PBMCs using Miltenyi Biotec naïve human T cell isolation kit (cat#130-094-131). Isolated cells were cultured at 10e6 cells/ml under iTreg-differentiation conditions using Dynabeads (Invitrogen; cat#11132D) at 1:1 ratio of beads to cells+human recombinant IL-2 (10 ng/ml) (R&D, cat#202-IL-010)+human recombinant TGFb (10 ng/ml) (Invitrogen; cat# PHG9204). After 16 hours the CBP inhibitors CBP/EP300(3) and CBP/EP300(4) were added using DMSO as control. CD8+ T cells were isolated from healthy human PBMCs using Militenyi Biotec human CD8 T cell isolation kit (cat#130-095-236) and cultured at 10e6 cells/ml with human T activator Dynabeads at 1:1 ratio of cells to cells with the addition of 10 ng/ml of recombinant human IL-2. 3 days after CD8+ T cell stimulation supernatants were collected and analyzed for CD8+ T cell associated effector function cytokines IFNg and TNFα by Luminex. […]
3 days after CD8+ T cell stimulation mRNA was extracted using mRNA Catcher™ PLUS Purification Kit (Invitrogen; K1570-02). Gene expression of Lag3, CTLA4 and TIM3, genes encoding inhibitory receptors on the surface of CD8+ T cells and under the transcriptional control of CBP/p300, was analyzed by q-RT-PCR. Foxp3 expression and Granzyme B (GZMB) expression, a gene encoding effector function of CD8+ T cells, were also analyzed by q-RT-PCR. […]

iTreg cells [2] = assay: Foxp3 protein expression in iTreg cells by flow cytometry (FIG. 8); settings: 4 days after stimulation
Description: as §1
Cells from iTreg cultures were first stained with CD4 APC-CY7 and CD25 Pacific blue (both from BD pharmigen, cat#557811 and 560355, respectively); this was followed by fixation/permeabilization step and staining for intracellular Foxp3 FITC using human Foxp3 staining kit (eBioscience; cat#77-5774-40) according to the manufacturer protocol. FOXP3 expression by FACS was typically measured 4 d post-activation.

CD8+ T cells [3] = assay: gene expression in stimulated CD8+ T cells by q-RT-PCR (FIGS. 9-10); settings: for expression of LAG3, TIM3 and CTLA4: FIG. 9; for GZMB expression (effector function of CD8+ T cells): FIG. 10
Description: (§2) Naïve CD4+CD45RA+ T cells were isolated from healthy human PBMCs using Miltenyi Biotec naïve human T cell isolation kit (cat#130-094-131). Isolated cells were cultured at 10e6 cells/ml under iTreg-differentiation conditions using Dynabeads (Invitrogen; cat#11132D) at 1:1 ratio of beads to cells+human recombinant IL-2 (10 ng/ml) (R&D, cat#202-IL-010)+human recombinant TGFb (10 ng/ml) (Invitrogen; cat# PHG9204). After 16 hours the CBP inhibitors CBP/EP300(3) and CBP/EP300(4) were added using DMSO as control. CD8+ T cells were isolated from healthy human PBMCs using Militenyi Biotec human CD8 T cell isolation kit (cat#130-095-236) and cultured at 10e6 cells/ml with human T activator Dynabeads at 1:1 ratio of cells to cells with the addition of 10 ng/ml of recombinant human IL-2. 3 days after CD8+ T cell stimulation supernatants were collected and analyzed for CD8+ T cell associated effector function cytokines IFNg and TNFα by Luminex. Data in FIG. 10 show IFNγ (A) and TNFα (B) (pg/ml) secreted in the supernatants of CD8+ T cells stimulated with compounds CBP/EP300(3) and CBP/EP300(4), using DMSO as control.
3 days after CD8+ T cell stimulation mRNA was extracted using mRNA Catcher™ PLUS Purification Kit (Invitrogen; K1570-02). Gene expression of Lag3, CTLA4 and TIM3, genes encoding inhibitory receptors on the surface of CD8+ T cells and under the transcriptional control of CBP/p300, was analyzed by q-RT-PCR. Foxp3 expression and Granzyme B (GZMB) expression, a gene encoding effector function of CD8+ T cells, were also analyzed by q-RT-PCR. Beta-2-microglobulin (B2M) was used as house-keeping gene.

CD8+ T cells [4] = assay: IFNγ and TNFα in supernatants of stimulated CD8+ T cells by Luminex; settings: supernatants 3 days after stimulation
Description: as §2

Row | SMILES | Foxp3 expression, fold change over unstimulated naïve T cells (iTreg cells [1]) | Foxp3 protein expression (iTreg cells [2]) | expression of LAG3, TIM3 and CTLA4 (CD8+ T cells [3]) | GZMB expression (effector function of CD8+ T cells) (CD8+ T cells [3]) | cytokine production (IFNγ, TNFα) by CD8+ T cells (CD8+ T cells [4])
1 | COc1ccc2c(c1)N(CCCNC(=O)c1cccc3c1N[C@H](C)C(=O)N3)CCC2 [CBP/EP300(4)] | decrease Foxp3 expression in iTreg cells in a dose dependent manner | decrease Foxp3 protein expression in iTreg cells | dose-dependent reduction in the expression of LAG3, TIM3 and CTLA4 | did not affect effector function of CD8+ T cells | minimally affect
2 | C[C@H]1Nc2c(cccc2C(=O)NCCCN2CCOc3ccccc32)NC1=O [CBP/EP300(3)] | decrease Foxp3 expression in iTreg cells in a dose dependent manner | decrease Foxp3 protein expression in iTreg cells | dose-dependent reduction in the expression of LAG3, TIM3 and CTLA4 | did not affect effector function of CD8+ T cells | minimally affect
